Results from patent US20240252508A1, “Novel glucose uptake inhibitors for use in the treatment of cancer” (NOVELYEAST BV, priority 2021, published 2024).
Read-outs that look alike come from different tables or passages of the source.

Legend:
[1] = molecular target: T1, human GLUT4^V85M (Homo sapiens, UniProt P14672, V85M); experiment: Glucose uptake by GLUT4^V85M expressed in hxt^0 erg4Δ (EBY.VW4000) yeast; type: cell-based; conditions: 2.5 mM glucose
T1 construct: HA (C); expressed in transfected cells; host or cells: S. cerevisiae EBY.VW4000 (hxt0 erg4Δ), plasmid pFL38Kan-GLUT4^V85M (TEF1 promoter, low-copy)
T1 sequence (P14672 1-509 V85M): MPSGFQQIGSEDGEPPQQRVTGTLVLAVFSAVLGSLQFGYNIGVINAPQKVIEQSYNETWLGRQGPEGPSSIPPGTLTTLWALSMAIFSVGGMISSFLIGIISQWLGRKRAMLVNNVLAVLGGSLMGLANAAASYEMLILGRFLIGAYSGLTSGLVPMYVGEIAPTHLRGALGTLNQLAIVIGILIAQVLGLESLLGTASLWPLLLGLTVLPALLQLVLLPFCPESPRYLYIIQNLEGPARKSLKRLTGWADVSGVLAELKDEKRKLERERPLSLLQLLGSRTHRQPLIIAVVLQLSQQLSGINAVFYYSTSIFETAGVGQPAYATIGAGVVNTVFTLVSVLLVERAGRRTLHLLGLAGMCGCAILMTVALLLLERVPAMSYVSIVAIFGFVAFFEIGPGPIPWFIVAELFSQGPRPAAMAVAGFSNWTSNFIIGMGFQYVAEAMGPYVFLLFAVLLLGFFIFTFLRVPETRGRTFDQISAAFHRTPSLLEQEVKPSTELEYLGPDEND
Description: (§1) To assess whether WBC-A could inhibit glucose transport activity of the GLUT carriers, we expressed human GLUT1^V69M and GLUT4^V85M in a hxt^0 gal2Δ (RE700A) and hxt^0 erg4Δ (EBY.VW4000) strain, respectively. These strains are both deficient in glucose uptake due to absence of all active glucose transporters. For functional GLUT expression in yeast, specific mutations had to be introduced in both sequences, whereas for GLUT4, an additional ERG4 gene deletion was required^64,65,66.
(§2) Zero-trans uptake of radioactively labeled [U-^14C]glucose, [U-^14C]fructose or [U-^14C]galactose by S. cerevisiae cells was determined in accordance with previous studies^44,66. Cells were grown on different carbon sources depending on the experiment. For measuring glucose uptake activity in the tps1Δ and tps1Δ hxtA strains (FIG. 1b,c), cells were grown on YP medium containing 3% glycerol (measurement of 10s). Typically, for compound characterization and kinetic studies in wild type and tps1Δ strains, cells were (pre)grown on Complete Synthetic medium supplemented with 2% galactose (measurement of 10s). […] The loaded filter was transferred to a scintillation vial containing 3 mL liquid scintillation cocktail (Ultima-Flo M, Perkin Elmer) and counted using the Hidex 300 SL. […]

[2] = tested on: HXK2 hxk1Δ glk1Δ, hxk2Δ hxk1Δ glk1Δ and hxk2Δ hxk1Δ GLK1 cells; experiment: Sugar uptake in yeast strains with and without hexokinase activity; type: cell-based, S. cerevisiae; conditions: for inhibition at 50 µM: Saccharomyces cerevisiae
Method: (§3) Zero-trans uptake of radioactively labeled [U-^14C]glucose, [U-^14C]fructose or [U-^14C]galactose by S. cerevisiae cells was determined in accordance with previous studies^44,66. Cells were grown on different carbon sources depending on the experiment. For measuring glucose uptake activity in the tps1Δ and tps1Δ hxtA strains (FIG. 1b,c), cells were grown on YP medium containing 3% glycerol (measurement of 10s). Typically, for compound characterization and kinetic studies in wild type and tps1Δ strains, cells were (pre)grown on Complete Synthetic medium supplemented with 2% galactose (measurement of 10s). In the experiments on the influence of hexokinase activity on the sugar uptake rate, the measurement duration was shortened to 5s and cells were always grown on YP medium containing 3% glycerol and 2% ethanol. After harvesting, cells were washed twice with ice-cold 25 mM MES-buffer pH 6, and resuspended in their respective medium without sugar to a final concentration of 45 mg (wet weight)/mL. The amount of added tracer was estimated to give a response close to at least 1000 counts per min in order to adequately counter background noise. Cells were first preincubated for 10 min at 30° C. with the compound to acclimate the cells to the temperature and to allow adequate interaction with the compound prior to uptake. Next, hexose sugar was mixed with the cell suspension, which was then incubated for 5 or 10 s, depending on the experiment, after which the cells were rapidly filtered over a glass microfiber filter (Whatman GF/C) and washed three times with ice-cold dH2O. The loaded filter was transferred to a scintillation vial containing 3 mL liquid scintillation cocktail (Ultima-Flo M, Perkin Elmer) and counted using the Hidex 300 SL. Three blank measurements per strain were typically included to account for background signal, for which the cells were first quenched before adding the radioactive label.

[3] = tested on: wild type cells; experiment: Zero-trans glucose uptake in wild type yeast cells; type: cell-based, S. cerevisiae; conditions: for Ki: Dixon plot analysis
Method: as §3

[4] = molecular target: T2, human GLUT1^V69M (Homo sapiens, UniProt P11166, V69M); experiment: Glucose uptake by GLUT1^V69M expressed in hxt^0 gal2Δ (RE700A) yeast; type: cell-based; conditions: 2.5 mM glucose
T2 construct: HA (C); expressed in transfected cells; host or cells: S. cerevisiae RE700A (hxt0 gal2Δ), plasmid pFL38Kan-GLUT1^V69M (TEF1 promoter, low-copy)
T2 sequence (P11166 1-492 V69M): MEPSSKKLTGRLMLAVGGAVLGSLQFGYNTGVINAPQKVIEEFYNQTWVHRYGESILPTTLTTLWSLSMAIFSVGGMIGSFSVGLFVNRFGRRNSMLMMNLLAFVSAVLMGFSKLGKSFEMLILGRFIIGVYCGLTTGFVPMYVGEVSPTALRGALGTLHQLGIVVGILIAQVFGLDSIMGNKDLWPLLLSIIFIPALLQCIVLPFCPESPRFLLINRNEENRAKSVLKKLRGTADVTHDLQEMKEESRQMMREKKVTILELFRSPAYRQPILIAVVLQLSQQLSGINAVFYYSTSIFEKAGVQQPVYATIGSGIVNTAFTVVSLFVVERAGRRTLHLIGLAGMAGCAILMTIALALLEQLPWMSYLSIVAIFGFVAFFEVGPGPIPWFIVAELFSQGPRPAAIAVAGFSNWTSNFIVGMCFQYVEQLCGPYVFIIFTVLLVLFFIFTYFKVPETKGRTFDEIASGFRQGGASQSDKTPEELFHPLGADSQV
Description: as §1, §2

[5] = tested on: A549 lung adenocarcinoma cells; experiment: 2-deoxyglucose uptake in A549 cells; type: cell-based, human
Method: Zero-trans glucose uptake in A549 cells was approximated by measuring the uptake of [1,2-^3H]2-deoxyglucose. For this purpose, A549 cells were pregrown in RPMI medium containing 10 mM glucose in a 24-well plate to a cell density of around 100,000 cells/well. Prior to adding radioactive label, cells were gently washed twice in Krebs-Ringer-HEPES buffer (50 mM HEPES pH 7.4, 137 mM NaCl, 4.7 mM KCl, […], 1.3 mM MgSO4 and 0.1% w/v BSA) at 30° C. to remove any residual sugar. RPMI medium without sugar containing the compound intended for treatment, was added to the cells for 15 min at 37° C. to allow adequate interaction of the cells with the compound.
The uptake measurement was initiated by adding an equal volume of medium containing radiolabeled 2DG. After 3-4 min, medium was aspirated and cells were gently washed three times with ice-cold Krebs-Ringer-HEPES buffer. Cells were lysed by adding 200 μL of ice-cold 0.1 M NaOH solution and incubating the plate for 10 min at 37° C. Cell lysates were transferred to scintillation vials for subsequent scintillation counting. For blank measurements, cells were incubated with 50 μM Cytochalasin B prior to the uptake measurement.

Cc1nc(Sc2nnc3n2CCCCC3)c2c(-c3cccs3)csc2n1 [WBC-A]
IC50 [1]: 20.9 µM | Fructose uptake at tracer concentration, hxk2Δ hxk1Δ GLK1 cells ([2]; 50 μM WBC-A): little inhibition of fructose uptake | Glucose uptake at tracer concentration, hxk2Δ hxk1Δ GLK1 cells ([2]; 50 μM WBC-A): strong inhibition of glucose uptake | Inhibition of glucose uptake rate, hxk1Δ hxk2Δ glk1Δ strain ([2]; 1 mM glucose): little further inhibition | Inhibition of glucose uptake rate, strain expressing active Hxk2 ([2]; 1 mM glucose, HXK2 hxk1Δ glk1Δ): strong reduction in glucose uptake rate | inhibition at 50 µM ([2]; read-out: Inhibition of fructose transport, strain expressing only GLK1): ~30% | inhibition at 50 µM ([2]; read-out: Inhibition of fructose transport, strain only expressing HXK2): > 75% | Ki [3]: 9.04 µM | Ki ([3]; printed K′, read-out: K′i, glucose uptake, wild type cells): 36.6 µM | Type of inhibition of glucose uptake, wild type cells ([3]; Lineweaver-Burk plot analysis): mixed type | Inhibition of glucose uptake by GLUT1^V69M at 25 μM ([4]; 25 μM, hxt^0 gal2Δ strain): inhibited | IC50 ([4]; hxt^0 gal2Δ (RE700A)): 24 µM | Ki ([5]; Dixon plot analysis, read-out: Ki (=K′i), 2-deoxyglucose uptake in A549 cells): 52.8 µM | Type of inhibition of 2-deoxyglucose uptake in A549 cells ([5]; Lineweaver-Burk plot analysis): noncompetitive
